Holding throughout (assay type): functional, cell-based
Assay [1] deals with A549. The assay is described as follows: Compound was tested for antiproliferative activity against human A549 cancer cell lines using MTT assay.
The subject of assay [2] is MKN-45. Kind of assay: Compound was tested for antiproliferative activity against human MKN45 cancer cell lines.
Assay [3] deals with SK-BR-3. The assay is described as follows: Compound was tested for antiproliferative activity against human SK-BR-3 cancer cell lines.

Regarding `O=C(/C=C/c1ccc(CNC(=O)c2ccc(N3CCN(Cc4cccnc4)CC3)cc2)cc1)NO`, the values for the IC50 in assay [1], in assay [2] and in assay [3] were 1650 nM, 2940 nM and 270 nM, respectively.
Regarding `O=C(/C=C/c1ccc(CNC(=O)c2ccc(N3CCN(Cc4ccccn4)CC3)cc2)cc1)NO`, the IC50 in assay [1] was 12000 nM; in assay [2], 38600 nM; in assay [3], 3190 nM.
For `O=C(/C=C/c1ccc(CNC(=O)c2ccc(N3CCN(Cc4ccncc4)CC3)cc2)cc1)NO`, the figures for the IC50 in assay [1], in assay [2] and in assay [3] were 3020 nM, 56000 nM and 1720 nM, respectively.
For `O=C(/C=C/C#Cc1ccc(NS(=O)(=O)c2ccccc2)cc1)NO` [OXAMFLATIN], in that order: 840 nM, 1070 nM and 590 nM.
